According to PubChem BioAssay AID1671318:

Biological target: Tyrosine-protein kinase Lyn (Homo sapiens) (UniProt P07948)
Assay: LYN A kinase inhibition, dose response, biochemical, LYN A isoform, Z'-LYTE, FRET readout (AID 1671318)
Details: Z'-LYTE FRET kinase assay, recombinant LYN A

Sequence of Tyrosine-protein kinase Lyn (Homo sapiens) (P07948 whole entry, looked up, canonical isoform): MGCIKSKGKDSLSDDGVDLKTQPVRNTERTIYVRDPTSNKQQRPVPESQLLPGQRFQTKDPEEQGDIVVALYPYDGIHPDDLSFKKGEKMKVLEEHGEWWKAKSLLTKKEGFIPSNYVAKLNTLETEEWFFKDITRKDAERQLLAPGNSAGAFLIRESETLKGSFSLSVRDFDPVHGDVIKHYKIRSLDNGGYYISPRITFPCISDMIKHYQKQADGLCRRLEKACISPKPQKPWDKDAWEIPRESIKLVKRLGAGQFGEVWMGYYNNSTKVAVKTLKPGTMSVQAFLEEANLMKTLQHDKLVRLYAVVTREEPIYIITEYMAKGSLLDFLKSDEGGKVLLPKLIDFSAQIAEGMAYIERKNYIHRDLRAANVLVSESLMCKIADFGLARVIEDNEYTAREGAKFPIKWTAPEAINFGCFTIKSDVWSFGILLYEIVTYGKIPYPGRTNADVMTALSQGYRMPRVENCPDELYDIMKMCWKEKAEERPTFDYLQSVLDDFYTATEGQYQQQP

IC50: 0.208 µM
SMILES: COc1cc2ncnc(Nc3cccc(Cl)c3)c2cc1OC
